Laboratory results taken from ChEMBL document CHEMBL1201862, “PubChem BioAssay data set” (2004).
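Grown in 96-well plates, cells were treated for 48 hours with each compound at five concentrations. Insufficient inhibition: endpoint recorded as highest concentration tested. GI50 marks 50% less growth.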 Active and inactive are the calls of the source. Rule as the data show it: active = GI50 up to about 1.1 µM and inactive = higher.

Experiments:
Test in all cases: inhibition of tumour cell growth, NCI panel, 48 h
A498 = test system: A498
BT-549 = test system: BT-549
EKVX = test system: EKVX
HCC 2998 = test system: HCC 2998
HOP-62 = test system: HOP-62
HOP-92 = test system: HOP-92
Hs-578T = test system: Hs-578T
M14 = test system: M14
MDA-MB-231 = test system: MDA-MB-231
Malme-3M = test system: Malme-3M
NCI-H226 = test system: NCI-H226
OVCAR-5 = test system: OVCAR-5
PC-3 = test system: PC-3
SF-295 = test system: SF-295
SK-MEL-2 = test system: SK-MEL-2
SNB-75 = test system: SNB-75
T47D = test system: T47D
UACC-257 = test system: UACC-257
UACC-62 = test system: UACC-62

| SMILES | GI50 (A498) | GI50 (BT-549) | GI50 (EKVX) | GI50 (HCC 2998) | GI50 (HOP-62) | GI50 (HOP-92) | GI50 (Hs-578T) | GI50 (M14) | GI50 (MDA-MB-231) | GI50 (Malme-3M) | GI50 (NCI-H226) | GI50 (OVCAR-5) | GI50 (PC-3) | GI50 (SF-295) | GI50 (SK-MEL-2) | GI50 (SNB-75) | GI50 (T47D) | GI50 (UACC-257) | GI50 (UACC-62) |
| --- | --- | --- | --- | --- | --- | --- | --- | --- | --- | --- | --- | --- | --- | --- | --- | --- | --- | --- | --- |
| O=c1c2ncn(C3CC(O)C(CO)O3)c2nnn1Cc1ccccc1[N+](=O)[O-] (stereo unspecified) | > 100 µM (inactive) | > 100 µM (inactive) | > 100 µM (inactive) | > 100 µM (inactive) | > 100 µM (inactive) | 57.8 µM (inactive) | > 100 µM (inactive) | > 100 µM (inactive) | > 100 µM (inactive) | > 100 µM (inactive) | 43.6 µM (inactive) | > 100 µM (inactive) | > 100 µM (inactive) | > 100 µM (inactive) | 4.78 µM (inactive) | > 100 µM (inactive) | > 100 µM (inactive) | > 100 µM (inactive) | > 100 µM (inactive) |
| COc1ccc2[nH]cc(CN3CCC(CO)(c4ccccc4)CC3)c2c1 | 45.8 µM (inactive) | 78.9 µM (inactive) | 8.28 µM (inactive) | 21 µM (inactive) | 19.7 µM (inactive) |  | 25.7 µM (inactive) | 17.3 µM (inactive) | 26.7 µM (inactive) | 25.8 µM (inactive) | 43.5 µM (inactive) | 68.5 µM (inactive) | 31.1 µM (inactive) | 16.1 µM (inactive) | 23.2 µM (inactive) | 27 µM (inactive) | 20.9 µM (inactive) | 17.5 µM (inactive) | 25.9 µM (inactive) |
| O=C(NC1(c2cc3ccccc3s2)CCCCC1)C1CCC1 | > 100 µM (inactive) | > 100 µM (inactive) | > 100 µM (inactive) | > 100 µM (inactive) | > 100 µM (inactive) | > 100 µM (inactive) | 37.1 µM (inactive) | > 100 µM (inactive) | 69.5 µM (inactive) | > 100 µM (inactive) | > 100 µM (inactive) | > 100 µM (inactive) | > 100 µM (inactive) | > 100 µM (inactive) | > 100 µM (inactive) | 46.7 µM (inactive) | > 100 µM (inactive) | > 100 µM (inactive) | > 100 µM (inactive) |
| O=c1cc(-c2ccccc2)[nH]c2ccc(N3CCCC3)cc12 | 0.0272 µM (active) | > 100 µM (inactive) |  | 0.172 µM (active) | 0.0163 µM (active) | 0.037 µM (active) | < 0.0173 µM (active) | < 0.0123 µM (active) | 0.103 µM (active) | > 100 µM (inactive) | 0.0266 µM (active) | 31.6 µM (inactive) | 0.0282 µM (active) | < 0.01 µM (active) | 0.0484 µM (active) | 40.6 µM (inactive) | > 100 µM (inactive) | 30.4 µM (inactive) | < 0.01 µM (active) |
| Cc1nn(-c2ccccn2)c2c1C(SC#N)=C(C=O)CC2 | 2.29 µM (inactive) | 18.5 µM (inactive) | 16.9 µM (inactive) | 11.9 µM (inactive) | 9.38 µM (inactive) | 16.5 µM (inactive) | 33.7 µM (inactive) | 15.8 µM (inactive) | 18 µM (inactive) | 18.3 µM (inactive) |  | 4.85 µM (inactive) | 19.7 µM (inactive) | 30.3 µM (inactive) | 16.9 µM (inactive) | 15.3 µM (inactive) | 4.05 µM (inactive) | 5.12 µM (inactive) | 5.71 µM (inactive) |
| O=C(c1cc(Cl)ccc1Cl)N1CCN(c2ccc(Cl)c(Cl)c2)CC1 | 11.5 µM (inactive) | 25.2 µM (inactive) | 37.2 µM (inactive) | 26.7 µM (inactive) | 67.5 µM (inactive) | 54.2 µM (inactive) | 45.9 µM (inactive) | > 10 µM (inactive) | 29.1 µM (inactive) | 17.9 µM (inactive) | 13.6 µM (inactive) | 16.6 µM (inactive) | 42.8 µM (inactive) | 45.4 µM (inactive) |  | 31.1 µM (inactive) | 2.45 µM (inactive) | 29.9 µM (inactive) |  |
| c1ccc(CSSSCc2ccccc2)cc1 [DIBENZYL TRISULFIDE] | 18.6 µM (inactive) | 3.27 µM (inactive) | 6.52 µM (inactive) | 5.58 µM (inactive) | 0.964 µM (active) |  | 8.32 µM (inactive) | 2.27 µM (inactive) | 2.48 µM (inactive) | 7.36 µM (inactive) |  | 3.62 µM (inactive) | 1.32 µM (inactive) | 6.58 µM (inactive) | 1.08 µM (active) | 7.18 µM (inactive) | 19.8 µM (inactive) | 5.57 µM (inactive) | 2.15 µM (inactive) |
